Assay results: US20060063784A1, “Method of using substituted pyrazolo [1,5-a] pyrimidines” (priority 2004, published 2006)
Like-named read-outs stand apart in the source and are kept apart here.

Assays:
[1] = system: 80S14 (p21-deficient) cells; experiment: Cytotoxicity assay using isogenic cell lines: IC50 in 80S14 (p21-deficient) cells, SRB; format: cell-based, human
How it was run: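 80S14 (p21-deficient) cells seeded at 12,000 cells/well overnight, then exposed 5 days at 37 °C to serial dilutions (5 pM–50 μM or 170 pg/ml–10 μg/ml). TCA-fixed, sulforhodamine B-stained, absorbance at 560 nm; IC50 taken from cytotoxicity curves versus untreated controls.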

[2] = system: LoVo Colon cell line; experiment: Cytotoxicity assay using LoVo colon cell line, SRB; format: cell-based; conditions: read-out: Inhibition of LoVo
Procedure: Cytotoxicity Assay Using LoVo Colon Cell Line: • 1. LoVo Colon cell lines were cultured in RPMI 1640 medium (Gibco/Invitrogen Life Sciences) supplemented with 10% fetal bovine serum (FBS, Gibco) and 50 μg/ml entamicin (Gibco). Cells were maintained at 37° C. under 7% CO2. • 2. Cells were seeded in 96-well microtiter plates (Corning/Costar) in a volume of 0.15 ml of growth medium (4000 cells/well). Plates were incubated at 37° C. overnight (18-24 hours). • 3. Serial dilutions of the test agent were added to each well. Dilutions were prepared in growth medium. One of two dose ranges was used: 5 pM to 20 μM or 170 pg/ml to 10 μg/ml. Cells were incubated with the test compounds for 4 days at 37° C. • 4. Surviving cells were processed using the SRB asay, as described above.
5. The drug concentration that inhibits cell proliferation by 50% relative to untreated controls (IC50) was determined from cytotoxicity curves using the LSW Toolbox graphing application.

[3] = Homo sapiens, 80S14, 120 h, read-out: IC50 for 80S14 (uM)
[4] = Homo sapiens, 120 h, 80S14 (p21-deficient) cells, 5 days, SRB, class symbols, read-out: IC50 for 80S14
[5] = Homo sapiens, 96 h, Cellular activity in LoVo cell, 4 days incubation, SRB
[6] = 80S14 p21-deficient cells, 5 days incubation, SRB, read-out: IC50 for 80SI4
[7] = Homo sapiens, 120 h, 80S14 p21-deficient cells, 5 days incubation, SRB, read-out: IC50 for 80SI4
[8] = Homo sapiens, 96 h, LoVo colon cells, 4 days incubation, SRB

Molecule	IC50 [1, 4]	IC50 [2, 5]	further results
CC(C)OC(=O)Nc1ccc(Cl)c(-c2ccnc3c(C(=O)c4cccs4)cnn23)c1 [Example 335, Isopropyl 4-chloro-3-[3-(thien-2-ylcarbonyl)pyrazolo[1,5-a]pyrimidin-7-yl]phenylcarbamate]			IC50 [1, 3]: < 1 µM; IC50 ([2]; Homo sapiens, LoVo, 96 h): 0.1 to 1 µM
O=C(Nc1cccc(-c2ccnc3c(C(=O)c4cccs4)cnn23)c1)c1cnccn1 [Example 385, N-{3-[3-(Thien-2-ylcarbonyl)pyrazolo[1,5-a]pyrimidin-7-yl]phenyl}pyrazine-2-carboxamide]	< 1 µM	< 0.1 µM	
CC(C)(C)CCNc1cccc(-c2ccnc3c(C(=O)c4cccs4)cnn23)c1 [Example 372, (7-{3-[(3,3-Dimethylbutyl)amino]phenyl}pyrazolo[1,5-a]pyrimidin-3-yl)(thien-2-yl)methanone]	< 1 µM	< 0.1 µM	
CCCCn1nnc(-c2cccc(-c3ccnc4c(C(=O)c5cccs5)cnn34)c2)n1 [Example 506, {7-[3-(2-Butyl-2H-tetraazol-5-yl)phenyl]pyrazolo[1,5-a]pyrimidin-3-yl) (thien-2-yl)methanone]	< 1 µM	< 0.1 µM	
O=C(Nc1cccc(-c2ccnc3c(C(=O)c4cccs4)cnn23)c1)OCc1cccnc1 [Example 424, Pyridin-3-ylmethyl 3-[3-(thien-2-ylcarbonyl)pyrazolo[1,5-a]pyrimidin-7-yl]phenylcarbamate]	< 1 µM	1 to 20 µM	
CCCCC(=O)Nc1cccc(-c2ccnc3c(C(=O)c4cccs4)cnn23)c1 [Example 152, N-3{3-[3-(thien-2-ylcarbonyl)pyrazolo[1,5-a]pyrimidin-7-yl]phenyl}pentanamide]			IC50 [1, 6]: < 1 µM; IC50 ([2]; LoVo colon cells, 4 days incubation, SRB): < 0.1 µM
O=C(c1cccs1)c1cnn2c(-c3cccc(-c4nnnn4CC4CCC4)c3)ccnc12 [Example 508, (7-{3-[1-(Cyclobutylmethyl)-1H-tetraazol-5-yl]phenyl}pyrazolo[1,5-a]pyrimidin-3-yl)(thien-2-yl)methanone]	10 to 50 µM	1 to 20 µM	
CC(C)OC(=O)Nc1cc(-c2ccnc3c(C(=O)c4cccs4)cnn23)ccc1N(C)C [Example 348, Isopropyl 2-(dimethylamino)-5-[3-(thien-2-ylcarbonyl)pyrazolo[1,5-a]pyrimidin-7-yl]phenylcarbamate]	1 to 10 µM	0.1 to 1 µM	
CC(C)CC(=O)Nc1cccc(-c2ccnc3c(-c4cccc(Cl)c4)cnn23)c1 [Example 471, N-{3-[3-(3-Chlorophenyl)pyrazolo[1,5-a]pyrimidin-7-yl]phenyl}-3-methylbutanamide]	10 to 50 µM	1 to 20 µM	
Cn1cccc1C(=O)Nc1cccc(-c2ccnc3c(C(=O)c4cccs4)cnn23)c1 [Example 387, 1-Methyl-N-{3-[3-(thien-2-ylcarbonyl)pyrazolo[1,5-a]pyrimidin-7-yl]phenyl}-1H-pyrrole-2-carboxamide]	< 1 µM	< 0.1 µM	
O=C(Nc1cccc(-c2ccnc3c(C(=O)c4cccs4)cnn23)c1)OC1C=CCCC1 (stereo not drawn) [Example 173, cyclohex-2-en-1-yl 3-[3-(thien-2-ylcarbonyl)pyrazolo[1,5-a]pyrimidin-7-yl]phenylcarbamate]			IC50 [1, 7]: < 1 µM; IC50 [2, 8]: < 0.1 µM
Cc1ccccc1C(=O)Nc1cccc(-c2ccnc3c(C(=O)c4cccs4)cnn23)c1 [Example 94, 2-methyl-N-{3-[3-(thien-2-ylcarbonyl)pyrazolo[1,5-a]pyrimidin-7-yl]phenyl}benzamide]			IC50 [1, 7]: < 1 µM; IC50 [2, 8]: < 0.1 µM
CC(C)CC(=O)Nc1cccc(-c2ccnc3c(-c4cccc(CN5CCN(C)CC5)c4)cnn23)c1 [Example 489, 3-Methyl-N-[3-(3-{3-[(4-methylpiperazin-1-yl)methyl]phenyl}pyrazolo[1,5-a]pyrimidin-7-yl)phenyl]butanamide]	1 to 10 µM	1 to 20 µM	
CC(C)CC(=O)Nc1ccc(-c2ccnc3c(C(=O)c4cccs4)cnn23)s1 [Example 343, 3-Methyl-N-{5-[3-(thien-2-ylcarbonyl)pyrazolo[1,5-a]pyrimidin-7-yl]thien-2-yl}butanamide]	1 to 10 µM	1 to 20 µM	
C=C(C)C(=O)Nc1cccc(-c2ccnc3c(C(=O)c4cccs4)cnn23)c1 [Example 44, 2-methyl-N-{3-[3-(thien-2-ylcarbonyl)pyrazolo[1,5-a]pyrimidin-7-yl]phenyl}acrylamide]			IC50 [2, 8]: < 0.1 µM
CN(C(=O)C1CCC1)c1cccc(-c2ccnc3c(C#N)cnn23)c1 [Example 234, N-[3-(3-Cyanopyrazolo[1,5-a]-pyrimidin-7-yl)phenyl]-N-methyl-cyclobutanecarboxamide]	1 to 10 µM		
N,N′-diethyl-3-[3-(2-thienylcarbonyl)-pyrazolo[1,5-a]pyrimidin-7-yl]-benzamide [Example 248]			IC50 ([1]; 80S14 (p21-deficient) cells, 5 days, SRB, class symbols, read-out: IC50 for 80S14): 10 to 50 µM
O=C(Cc1ccccc1)Nc1cccc(-c2ccnc3c(C(=O)c4cccs4)cnn23)c1 [Example 105, 2-phenyl-N-{3-[3-(thien-2-ylcarbonyl)pyrazolo[1,5-a]pyrimidin-7-yl]phenyl}acetamide]			IC50 [1, 7]: < 1 µM
CC(C)(C)COC(=O)NCC(=O)Nc1cccc(-c2ccnc3c(C(=O)c4cccs4)cnn23)c1 [Example 121, neopentyl 2-oxo-2-({3-[3-(thien-2-ylcarbonyl)pyrazolo[1,5-a]pyrimidin-7-yl]phenyl}amino)ethylcarbamate]			IC50 [1, 7]: 1 to 10 µM
O=C(Nc1cccc(-c2ccnc3c(C(=O)c4cccs4)cnn23)c1)c1ccc(Cl)cc1 [Example 89]			IC50 [1, 6]: 1 to 10 µM
NCCCC(=O)Nc1cccc(-c2ccnc3c(C(=O)c4cccs4)cnn23)c1 [Example 84, 4-amino-N-{3-[3-(thien-2-ylcarbonyl)pyrazolo[1,5-a]pyrimidin-7-yl]phenyl}butanamide]			IC50 [1, 7]: 10 to 50 µM
Cc1ccc(-c2ccnc3c(C(=O)c4cccs4)cnn23)cc1NC(=O)CC(C)C [Example 310, 3-Methyl-N-{2-methyl-5-[3-(2-thienylcarbonyl)pyrazolo[1,5-a]pyrimidin-7-yl]phenyl}butanamide]			IC50 [1, 3]: 1 to 10 µM
CNc1cccc(-c2ccnc3c(C(=O)c4cccs4)cnn23)c1 [Example 266, [7-[3-(Methylamino)phenyl]pyrazolo[1,5-a]pyrimidin-3-yl]-2-thienyl-methanone]	1 to 10 µM		
O=CNc1cccc(-c2ccnc3c(C(=O)c4cccs4)cnn23)c1 [Example 260, N-[3-[3-(2-Thienylcarbonyl)pyrazolo[1,5-a]pyrimidin-7-yl]phenyl}-formamide]			IC50 [1, 3]: 1 to 10 µM
O=C(Nc1cccc(-c2ccnc3c(C(=O)c4ccco4)cnn23)c1)c1ccccc1 [Example 300, N-{3-[3-(2-Furoyl)pyrazolo[1,5-a]pyrimidin-7-yl]phenyl}benzamide]	1 to 10 µM		
O=C(Nc1cccc(-c2ccnc3c(C(=O)c4cccs4)cnn23)c1)c1cccc2ccccc12 [Example 103, N-{3-[3-(thien-2-ylcarbonyl)pyrazolo[1,5-a]pyrimidin-7-yl]phenyl}-1-naphthamide]			IC50 [1, 7]: < 1 µM
O=C(c1cccs1)c1cnn2c(-c3cccc(NC(=O)[C@@H]4CCCN4)c3)ccnc12 [Example 85]			IC50 [1, 6]: 1 to 10 µM
O=C(Nc1cccc(-c2ccnc3c(C(=O)c4cccs4)cnn23)c1)c1cc(C(F)(F)F)ccc1C(F)(F)F [Example 280, N-{3-[3-(2-Thienylcarbonyl)pyrazolo[1,5-a]pyrimidin-7-yl]phenyl}-2,5-bis(trifluoromethyl)benzamide]	10 to 50 µM		
